Results taken from PubChem BioAssay AID248 (DTP/NCI, 2004).
“And” between values parts separate entries of the source, which are not always exact repeats. Equal entries are not always repeated. Toxic doses and inconclusive results are not listed. Cut-off read from the data, not from the text of the source: active = T/C of 150% or more; inactive = T/C below 125%.

Tested on: L1210 leukemia ip in BDF1 mice, survival T/C
Assay: NCI In Vivo Anticancer Drug Screen. Data for tumor model L1210 Leukemia (intraperitoneal) in B6D2F1 (BDF1) mice
Settings: endpoint: mean survival time, higher = longer survival
Procedure, shortened: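 Each compound was tested against a transplantable tumor grown in mice. The endpoint was survival, with treated animals benchmarked against vehicle controls as a simple ratio.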

[1] = dose: 100.0 mg/kg/injection, schedule: Q04DX003 (ip), vehicle: Klucel (hydroxypropylcellulose) (HPC)
[2] = dose: 100.0 mg/kg/injection, schedule: Q04DX003 (ip), vehicle: saline with Tween-80
[3] = dose: 200.0 mg/kg/injection, schedule: Q01DX009 (ip), vehicle: Klucel (hydroxypropylcellulose) (HPC)
[4] = dose: 200.0 mg/kg/injection, schedule: Q04DX003 (ip), vehicle: Klucel (hydroxypropylcellulose) (HPC)
[5] = dose: 200.0 mg/kg/injection, schedule: Q04DX003 (ip), vehicle: saline with Tween-80
[6] = dose: 400.0 mg/kg/injection, schedule: Q04DX003 (ip), vehicle: Klucel (hydroxypropylcellulose) (HPC)
[7] = dose: 400.0 mg/kg/injection, schedule: Q04DX003 (ip), vehicle: saline with Tween-80
[8] = dose: 100.0 mg/kg/injection, schedule: Q01DX009 (ip), vehicle: saline
[9] = dose: 200.0 mg/kg/injection, schedule: Q01DX009 (ip), vehicle: saline
[10] = dose: 100.0 mg/kg/injection, schedule: Q01DX001 (ip), vehicle: saline
[11] = dose: 200.0 mg/kg/injection, schedule: Q01DX001 (ip), vehicle: saline
[12] = dose: 100.0 mg/kg/injection, schedule: Q01DX009 (ip), vehicle: Klucel (hydroxypropylcellulose) (HPC)
[13] = dose: 400.0 mg/kg/injection, schedule: Q01DX009 (ip), vehicle: Klucel (hydroxypropylcellulose) (HPC)
[14] = dose: 100.0 mg/kg/injection, schedule: Q01DX009 (ip), vehicle: saline with Tween-80
[15] = dose: 200.0 mg/kg/injection, schedule: Q01DX009 (ip), vehicle: saline with Tween-80
[16] = dose: 400.0 mg/kg/injection, schedule: Q01DX009 (ip), vehicle: saline with Tween-80
[17] = dose: 100.0 mg/kg/injection, schedule: Q04DX002 (ip), vehicle: Klucel (hydroxypropylcellulose) (HPC)
[18] = dose: 200.0 mg/kg/injection, schedule: Q04DX002 (ip), vehicle: Klucel (hydroxypropylcellulose) (HPC)
[19] = dose: 100.0 mg/kg/injection, schedule: Q01DX001 (ip), vehicle: carboxymethylcellulose (CMC)
[20] = dose: 200.0 mg/kg/injection, schedule: Q01DX001 (ip), vehicle: carboxymethylcellulose (CMC)
[21] = dose: 400.0 mg/kg/injection, schedule: Q01DX001 (ip), vehicle: carboxymethylcellulose (CMC)
[22] = dose: 400.0 mg/kg/injection, schedule: Q01DX001 (ip), vehicle: saline
[23] = dose: 50.0 mg/kg/injection, schedule: Q01DX001 (ip), vehicle: carboxymethylcellulose (CMC)

Measured: T/C

O=[N+]([O-])C12CC3CC(CC(C3)C1)C2
inactive: dose: 100.0 mg/kg/injection, schedule: Q01DX001 (sc), vehicle: olive oil, sesame oil, peanut oil 114 % of control | dose: 200.0 mg/kg/injection, schedule: Q01DX001 (sc), vehicle: olive oil, sesame oil, peanut oil 108 % of control | dose: 400.0 mg/kg/injection, schedule: Q01DX001 (sc), vehicle: olive oil, sesame oil, peanut oil 93 % of control

CCO/C=C1\SC(=S)N(c2ccccc2C)C1=O
inactive: [1] 98 % of control | [2] 100 % of control | [3] 91 % of control | [4] 109 % of control | [5] 100 % of control | [6] 104 % of control | [7] 91 % of control

CCOC(=O)/C=C(\C)N1CCCCC1
inactive: [8] 104 % of control | [9] 100 % of control

O=C(Nc1ccc([N+](=O)[O-])cc1)OCC(COc1ccccc1)OC(=O)Nc1ccc([N+](=O)[O-])cc1 (configuration not stated)
inactive: dose: 100.0 mg/kg/injection, schedule: Q01DX001 (ip), vehicle: other 100 % of control | dose: 200.0 mg/kg/injection, schedule: Q01DX001 (ip), vehicle: other 89 % of control | dose: 400.0 mg/kg/injection, schedule: Q01DX001 (ip), vehicle: other 100 % of control

CN(CC(O)CN)c1ccccc1 (configuration not stated)
inactive: [10] 102 % of control | [11] 94 % of control

Cc1[nH]c(=O)[nH]c(=O)c1C
inactive: [12] 106 % of control | [1] 102 % of control | [3] 103 % of control | [4] 98 % of control | [13] 93 % of control | [6] 91 % of control

COC1OC(COCc2ccccc2)C(OCc2ccccc2)C(OC)C1O (configuration not stated)
inactive: [2] 96 % of control | [5] 94 % of control | [7] 104 % of control

CC/C(=C(\CC)c1ccc(OCCN(CCCl)CCCl)cc1)c1ccc(OCCN(CCCl)CCCl)cc1
inactive: dose: 25.0 mg/kg/injection, schedule: Q04DX002 (ip), vehicle: saline with Tween-80 90 % of control | dose: 50.0 mg/kg/injection, schedule: Q04DX002 (ip), vehicle: saline with Tween-80 94 % of control | dose: 100.0 mg/kg/injection, schedule: Q04DX002 (ip), vehicle: saline with Tween-80 101 % of control

F[Si](c1ccccc1)(c1ccccc1)c1cccc2ccccc12
inactive: dose: 100.0 mg/kg/injection, schedule: Q01DX001 (ip), vehicle: saline with Tween-80 96 % of control | [14] 98 % of control | dose: 200.0 mg/kg/injection, schedule: Q01DX001 (ip), vehicle: saline with Tween-80 102 % of control | [15] 92 % of control | dose: 400.0 mg/kg/injection, schedule: Q01DX001 (ip), vehicle: saline with Tween-80 94 % of control | [16] 93 % of control

O=C(CC1C(=O)Nc2ccccc21)c1ccccc1 (configuration not stated)
inactive: [17] 91 % of control | [18] 105 % of control | dose: 400.0 mg/kg/injection, schedule: Q04DX002 (ip), vehicle: Klucel (hydroxypropylcellulose) (HPC) 91 % of control

Cc1ncc(CC(=O)O)c2c1OC(C)(C)OC2
inactive: [19] 101 % of control | [20] 106 % of control | [21] 98 % of control

CN(C)N=Nc1cc2c(cc1O)CC[C@@H]1[C@@H]2CC[C@]2(C)C(=O)CC[C@@H]12
inactive: dose: 25.0 mg/kg/injection, schedule: Q01DX009 (ip), vehicle: Klucel (hydroxypropylcellulose) (HPC) 97 % of control | dose: 50.0 mg/kg/injection, schedule: Q01DX009 (ip), vehicle: Klucel (hydroxypropylcellulose) (HPC) 90 % of control | dose: 50.0 mg/kg/injection, schedule: Q04DX002 (ip), vehicle: Klucel (hydroxypropylcellulose) (HPC) 90 % of control | [12] 110 % of control | [17] 90 % of control | [3] 103 % of control | [18] 87 % of control | [13] 96 % of control

CC1(C)c2ccccc2Nc2ccccc21
inactive: [14] 86 % of control | [2] 97 % of control | [15] 89 % of control | [5] 101 % of control | [16] 89 % of control | [7] 98 % of control

CCC(/C=N/NC(N)=O)CC
inactive: [1] 101 % of control | [4] 93 % of control | [6] 96 % of control

CCCCCCCC(=O)Nc1ccccc1CC
inactive: [2] 93 % of control | [5] 95 % of control | [7] 86 % of control

CN=C(NC)SC
inactive: [10] 103 % of control | [1] 100 % of control | [11] 97 % of control | [4] 93 % of control | [22] 96 % of control | [6] 100 % of control

O=[N+]([O-])c1ccccc1N=Nc1c(O)[nH]c2cccc(C(F)(F)F)c12
inactive: dose: 100.0 mg/kg/injection, schedule: Q01DX001 (ip), vehicle: acetone 97 % of control | [10] 103 % of control | dose: 200.0 mg/kg/injection, schedule: Q01DX001 (ip), vehicle: acetone 97 % of control | dose: 400.0 mg/kg/injection, schedule: Q01DX001 (ip), vehicle: acetone 97 % of control | [22] 87 % of control

O=C(Nc1cccc(C(F)(F)F)c1)Nc1ccc(Cl)c(Cl)c1
inactive: [23] 96 % of control | [19] 102 % of control | [20] 98 % of control | [21] 113 % of control

CCCCCCCCCCC/C=N/NC(=O)c1ccc[n+](C)c1
inactive: dose: 50.0 mg/kg/injection, schedule: Q01DX009 (ip), vehicle: saline 108 % of control | [8] 108 % of control | [9] 110 % of control

c1cc[c]([Hg][S]c2nc3ccccc3s2)cc1
inactive: [23] 96 % of control | [19] 108 % of control

Cc1cc(OC(C)C(=O)O)c(Cl)cc1Cl (configuration not stated)
inactive: [23] 103 % of control | [19] 103 % of control

CCN(Cc1ccccc1)C(=O)NC(C)(C)C
inactive: [12] 98 % of control | [3] 95 % of control

ONC(=NCc1ccccc1)c1ccccc1
inactive: [19] 97 % of control | [20] 103 % of control

O=C(Cc1ccccc1)c1ccccc1
inactive: [14] 93 % of control | [15] 93 % of control | [16] 100 % of control

CN(C)Cc1c[nH]c2c1S/C(=C/c1ccccc1)C2=O
inactive: dose: 100.0 mg/kg/injection, schedule: Q01DX001 (ip), vehicle: Klucel (hydroxypropylcellulose) (HPC) 105 % of control | dose: 200.0 mg/kg/injection, schedule: Q01DX001 (ip), vehicle: Klucel (hydroxypropylcellulose) (HPC) 96 % of control | dose: 400.0 mg/kg/injection, schedule: Q01DX001 (ip), vehicle: Klucel (hydroxypropylcellulose) (HPC) 100 % of control

CCN=C(c1ccc(NC(=O)c2ccc(C(=O)Nc3ccc(C(=NCC)N(CC)C(=O)NCCCl)cc3)cc2)cc1)N(CC)C(=O)NCCCl
inactive: dose: 3.75 mg/kg/injection, schedule: Q01DX015 (ip), vehicle: methylcellulose (MC) 107 % of control | dose: 7.5 mg/kg/injection, schedule: Q01DX015 (ip), vehicle: methylcellulose (MC) 113 % of control

OC1CCCC[CH]1[Hg][Cl] (configuration not stated)
inactive: dose: 5.0 mg/kg/injection, schedule: Q01DX001 (ip), vehicle: saline 95 % of control

Nc1ccc(C(=O)NO)cc1
inactive: dose: 62.0 mg/kg/injection, schedule: Q03HX024 (ip), vehicle: saline with Tween-80 101 % of control | [12] 98 % of control | dose: 125.0 mg/kg/injection, schedule: Q03HX024 (ip), vehicle: saline with Tween-80 97 % of control | [3] 98 % of control | dose: 200.0 mg/kg/injection, schedule: Q01DX Z (ip), vehicle: carboxymethylcellulose (CMC) 118 % of control | dose: 200.0 mg/kg/injection, schedule: Q01DX Z (ip), vehicle: saline 117 % of control and 123 % of control | dose: 300.0 mg/kg/injection, schedule: Q01DX Z (ip), vehicle: carboxymethylcellulose (CMC) 115 % of control | [13] 108 % of control | dose: 443.0 mg/kg/injection, schedule: Q01DX Z (ip), vehicle: saline 119 % of control | dose: 675.0 mg/kg/injection, schedule: Q01DX Z (ip), vehicle: saline 91 % of control | dose: 800.0 mg/kg/injection, schedule: Q01DX009 (ip), vehicle: Klucel (hydroxypropylcellulose) (HPC) 106 % of control
